Assay results taken from PMC6270409, “Synthesis and Anti-Influenza Virus Activities of a Novel Class of Gastrodin Derivatives” (Molecules, 2013).
Read-outs that look alike come from different tables or passages of the source. Marks after values point to notes of the source that are not given here.

Columns and labels:
[1] = test system: influenza A/FM/1/47(H1N1); assay: microbe, parasite or virus in culture; format: cell-based, influenza A virus
[2] = test system: influenza A/Hanfang/359/95(H3N2); assay: microbe, parasite or virus in culture; format: cell-based, influenza A virus
[3] = test system: influenza B (B/Jifang/13/97); assay: Anti-influenza CPE assay in MDCK cells, oseltamivir-null B/Jifang/13/97; format: cell-based; details: Influenza B virus, read-out: IC50 B/Jifang/13/97
MDCK cells = assay: Cytotoxicity assay in MDCK cells monitored by CPE; details: 48 h, Table 1
[4] = test system: influenza virus M2 protein expression; format: cell-based, influenza virus A/Wuhan/359/95
[5] = test system: influenza A/FM/1/47-MA (H1N1) virus; format: in vivo, mice; details: for Mean day to death: b.i.d x 7, mean survival time of mice dying on or before day 14; for Mean lung score / Lung consolidation: day 6 post-virus exposure; for Lung consolidation: score 0-4; for numbers of surviving animals: survivors/total
viral hemagglutinin = assay: Hemagglutination inhibition assay; format: biochemical, influenza virus; details: 2 fold serial diluted from 40 μg/mL, chicken erythrocytes
[6] = test system: neuraminidase of the two influenza virus A strain; assay: Neuraminidase inhibition assay (MUNANA), two influenza A strains; format: biochemical; details: MUNANA substrate

Compound	melting point	IC50 ([1]; Influenza A virus, H1N1, MDCK)	IC50 ([2]; Influenza A virus, H3N2, MDCK)	IC50 [3]	further results
CC(=O)OC[C@H]1O[C@@H](Oc2ncccc2F)[C@H](OC(C)=O)[C@@H](OC(C)=O)[C@@H]1OC(C)=O [Compound 12a, (2R,3R,4S,5R,6S)-2-(Acetoxymethyl)-6-(3-fluoropyridin-2-yloxy)-tetrahydro-2H-pyran-3,4,5-triyl triacetate]	140 to 142 °C	25.2 µM	> 50.1 µM	> 50.1 µM	
Methyl 4-((2S,3R,4S,5R,6R)-3,4,5-triacetoxy-6-(acetoxymethyl)-tetrahydro-2H-pyran-2-yloxy)benzoate [Compound 5a]					IC50 [1]: > 134 µM; IC50 [2]: 93.6 µM; TC50 (MDCK cells): 232.53 µM
NC(=O)c1ncn([C@@H]2O[C@H](CO)[C@@H](O)[C@H]2O)n1 [Ribavirin, reference compound]		13.5 µM	11.9 µM	11.4 µM	effect on influenza virus M2 protein expression [4]: significant inhibitory effect; Mean day to death ([5]; 100 mg/kg/day po): 14.0 * days; Mean lung score ([5]; 100 mg/kg/day po): 1.31 ± 0.34; Lung consolidation ([5]; 100 mg/kg/day po): 0.50 *; % Survivors ([5]; mouse, in vivo): 100 (10/10) %; influenza virus induced cytopathic effect ([2]; 10 μg/mL, strain not given): completely inhibits
COC(=O)c1c(OC)cc(O[C@@H]2O[C@H](COC(C)=O)[C@@H](OC(C)=O)[C@H](OC(C)=O)[C@H]2OC(C)=O)cc1OC [Compound 2a, Methyl 2,6-dimethoxy-4-((2S,3R,4S,5R,6R)-3,4,5-triacetoxy-6-(acetoxymethyl)-tetrahydro-2H-pyran-2-yloxy)benzoate]	121 to 123 °C	11.6 µM	> 13.7 µM	6.25 µM	
CC(=O)OC[C@H]1O[C@@H](Oc2cccc(F)c2C)[C@H](OC(C)=O)[C@@H](OC(C)=O)[C@@H]1OC(C)=O [Compound 10a, (2R,3R,4S,5R,6S)-2-(Acetoxymethyl)-6-(3-fluoro-2-methylphenoxy)-tetrahydro-2H-pyran-3,4,5-triyl triacetate]	127 to 129 °C	> 146 µM	> 146 µM		
COC(=O)c1ccc(F)c(O)c1 [Compound 1, Methyl 4-fluoro-3-hydroxybenzoate]		> 392 µM	> 1180 µM		IC50 A/FM/1/47 [1]: no activity; IC50 A/Hanfang/359/95 [2]: no activity; TC50 (MDCK cells): >1175.50 µM
COC(=O)c1c(F)cccc1O[C@@H]1O[C@H](COC(C)=O)[C@H](OC(C)=O)[C@H](OC(C)=O)[C@H]1OC(C)=O [Compound 9b, Methyl 2-fluoro-6-((2S,3R,4S,5S,6R)-3,4,5-triacetoxy-6-(acetoxymethyl)-tetrahydro-2H-pyran-2-yloxy)benzoate]	130 to 132 °C	66.6 µM	> 133 µM	> 133 µM	
CC(=O)OC[C@H]1O[C@@H](Oc2cccc(F)c2C)[C@H](OC(C)=O)[C@@H](OC(C)=O)[C@H]1OC(C)=O [Compound 10b, (2R,3S,4S,5R,6S)-2-(Acetoxymethyl)-6-(3-fluoro-2-methylphenoxy)-tetrahydro-2H-pyran-3,4,5-triyl triacetate]	127 to 129 °C	> 52.2 µM	48.7 µM	39.4 µM	
OCc1ccc(O[C@@H]2O[C@H](CO)[C@@H](O)[C@H](O)[C@H]2O)cc1 [Gastrodin]		> 232 µM	161 µM		TC50 (MDCK cells): >698.62 µM
COC(=O)c1ccc(O[C@@H]2O[C@H](COC(C)=O)[C@H](OC(C)=O)[C@H](OC(C)=O)[C@H]2OC(C)=O)c(F)c1 [Compound 7b, Methyl 3-fluoro-4-((2S,3R,4S,5S,6R)-3,4,5-triacetoxy-6-(acetoxymethyl)-tetrahydro-2H-pyran-2-yloxy)benzoate]	121 to 123 °C	133 µM	> 133 µM		
NC12CC3CC(CC(C3)C1)C2 [Amantadine]					effect on influenza virus M2 protein expression [4]: significantly inhibited
COC(=O)c1ccc(F)cc1O[C@@H]1O[C@H](COC(C)=O)[C@H](OC(C)=O)[C@H](OC(C)=O)[C@H]1OC(C)=O [Compound 8b, Methyl 4-fluoro-2-((2S,3R,4S,5S,6R)-3,4,5-triacetoxy-6-(acetoxymethyl)-tetrahydro-2H-pyran-2-yloxy)benzoate]	136 to 138 °C	> 400 µM	> 400 µM		TC50 (MDCK cells): >399.66 µM
Ethyl 4-fluoro-2-((2S,3R,4S,5R,6R)-3,4,5-triacetoxy-6-(acetoxymethyl)-tetrahydro-2H-pyran-2-yloxy)-benzoate [Compound 8a]					IC50 [1]: 83.7 µM; IC50 [2]: 44.4 µM; TC50 (MDCK cells): 277.10 µM
CC(=O)OCc1ccc(F)c(O[C@@H]2O[C@H](COC(C)=O)[C@@H](OC(C)=O)[C@H](OC(C)=O)[C@H]2OC(C)=O)c1 [Compound 13a, (2R,3R,4S,5R,6S)-2-(Acetoxymethyl)-6-(5-(acetoxymethyl)-2-fluorophenoxy)-tetrahydro-2H-pyran-3,4,5-triyl triacetate]		> 130 µM	> 130 µM		
COC(=O)c1ccc(F)c(O[C@@H]2O[C@H](COC(C)=O)[C@@H](OC(C)=O)[C@H](OC(C)=O)[C@H]2OC(C)=O)c1 [Compound 1a, Methyl 4-fluoro-3-((2S,3R,4S,5R,6R)-3,4,5-triacetoxy-6-(acetoxymethyl)-tetrahydro-2H-pyran-2-yloxy)benzoate]		34.4 µM	44.4 µM	33 µM	inhibitory effect on hemagglutination (viral hemagglutinin): did not show an inhibitory effect; IC50 on neuraminidase [6]: > 40 µg/mL; effect on influenza virus M2 protein expression ([4]; MDCK cells infected with A/Wuhan/359/95, 300TCID50, 24 hours post infection): no effect; numbers of surviving animals ([5]; 40 mg/kg/day intragastrically): 1/10; Mean lung score ([5]; 40 mg/kg/day po): 2.61 ± 0.85; Lung consolidation ([5]; 40 mg/kg/day po): 3.56; numbers of surviving animals ([5]; 80 mg/kg/day intragastrically): 6/10; Mean day to death ([5]; 80 mg/kg/day po): 11.3 days; Mean lung score ([5]; 80 mg/kg/day po): 1.82 ± 0.82; Lung consolidation ([5]; 80 mg/kg/day po): 2.25; IC50 [1]: 34.5 µM
COC(=O)c1ccc(F)c(O[C@@H]2O[C@H](COC(C)=O)[C@H](OC(C)=O)[C@H](OC(C)=O)[C@H]2OC(C)=O)c1 [Compound 1b, Methyl 4-fluoro-3-((2S,3R,4S,5S,6R)-3,4,5-triacetoxy-6-(acetoxymethyl)-tetrahydro-2H-pyran-2-yloxy)benzoate]		> 133 µM	92.4 µM		
CC(=O)OC[C@H]1O[C@@H](Oc2ccncc2)[C@H](OC(C)=O)[C@@H](OC(C)=O)[C@@H]1OC(C)=O [Compound 11a, (2R,3R,4S,5R,6S)-2-(Acetoxymethyl)-6-(pyridin-4-yloxy)-tetrahydro-2H-pyran-3,4,5-triyl triacetate]	132 to 134 °C	52.2 µM	40.5 µM	> 52.2 µM	
COC(=O)c1cccc(O[C@@H]2O[C@H](COC(C)=O)[C@H](OC(C)=O)[C@H](OC(C)=O)[C@H]2OC(C)=O)c1 [Compound 6b, Methyl 3-((2S,3R,4S,5S,6R)-3,4,5-triacetoxy-6-(acetoxymethyl)-tetrahydro-2H-pyran-2-yloxy)benzoate]	154 to 156 °C	> 138 µM	> 138 µM		
OCc1ccc(F)c(O[C@@H]2O[C@H](CO)[C@@H](O)[C@H](O)[C@H]2O)c1 [Compound 14a, (2S,3R,4S,5S,6R)-2-(2-Fluoro-5-(hydroxymethyl)phenoxy)-6-(hydroxymethyl)-tetrahydro-2H-pyran-3,4,5-triol]		> 657 µM	> 657 µM		TC50 (MDCK cells): >657.31 µM
COC(=O)c1c(F)cccc1O[C@@H]1O[C@H](COC(C)=O)[C@@H](OC(C)=O)[C@H](OC(C)=O)[C@H]1OC(C)=O [Compound 9a, Methyl 2-fluoro-6-((2S,3R,4S,5R,6R)-3,4,5-triacetoxy-6-(acetoxymethyl)-tetrahydro-2H-pyran-2-yloxy)benzoate]	130 to 132 °C	34.5 µM	> 44.4 µM	> 44.4 µM	
Ethyl 3,5-dichloro-4-((2S,3R,4S,5R,6R)-3,4,5-triacetoxy-6-(acetoxymethyl)-tetrahydro-2H-pyran-2-yloxy)benzoate [Compound 3a]					IC50 [1]: > 363 µM; IC50 [2]: > 363 µM; TC50 (MDCK cells): >362.77 µM
CCOC(=O)C1=C[C@@H](OC(CC)CC)[C@H](NC(C)=O)[C@@H](N)C1 [Oseltamivir, reference compound]		57.5 µM	2.08 µM	> 100 µM	effect on influenza virus M2 protein expression [4]: has inhibitory effect
COC(=O)c1ccc(O[C@@H]2O[C@H](COC(C)=O)[C@@H](OC(C)=O)[C@H](OC(C)=O)[C@H]2OC(C)=O)c(F)c1 [Compound 7a, Methyl 3-fluoro-4-((2S,3R,4S,5R,6R)-3,4,5-triacetoxy-6-(acetoxymethyl)-tetrahydro-2H-pyran-2-yloxy)benzoate]	121 to 123 °C	> 133 µM	103 µM		
COC(=O)c1ccc(N)c(O[C@@H]2O[C@H](COC(C)=O)[C@@H](OC(C)=O)[C@H](OC(C)=O)[C@H]2OC(C)=O)c1 [Compound 4a, Methyl 4-amino-3-((2S,3R,4S,5R,6R)-3,4,5-triacetoxy-6-(acetoxymethyl)-tetrahydro-2H-pyran-2-yloxy)benzoate]	126 to 128 °C	119 µM	> 134 µM		
